Source: DBAASP
In brackets after ≈: the same amount, converted by molar mass.

How the values were obtained:
Assay in all cases: ≥ marks a high value that may be exact or a test limit, other limits are often not marked, values filed in µg/mL are converted to µM
[1] = test system: Staphylococcus aureus ATCC 25923
[2] = test system: Escherichia coli ATCC 25922
[3] = test system: Pseudomonas aeruginosa ATCC 27853

MIC [1] [µM] | MIC [2] [µM] | MIC [3] [µM] | SMILES
> 19.6 | 19.6 (≈ 24 µg/mL) |  | CC[C@H](C)[C@H](NC(=O)[C@H](CCCN=C(N)N)NC(=O)[C@H](CCCCN)NC(=O)[C@H](CC(C)C)NC(=O)[C@H](CC(C)C)NC(=O)[C@@H](N)CCCCN)C(=O)N[C@@H](CCCCN)C(=O)N[C@H](C(=O)N[C@@H](CC(C)C)C(=O)N[C@@H](CC(C)C)C(N)=O)[C@@H](C)O [KLLKRIKTLL]
> 54.7 | 54.7 (≈ 59.9 µg/mL) |  | CC[C@H](C)[C@H](NC(=O)[C@H](CCCN=C(N)N)NC(=O)[C@H](CCCCN)NC(=O)[C@H](CC(C)C)NC(=O)[C@@H](N)CC(C)C)C(=O)N[C@@H](CCCCN)C(=O)N[C@H](C(=O)N[C@@H](CC(C)C)C(=O)N[C@@H](CC(C)C)C(N)=O)[C@@H](C)O [LLKRIKTLL]
 | 62.4 (≈ 64 µg/mL) |  | CC(C)[C@H](NC(=O)[C@H](CC(N)=O)NC(=O)[C@H](CCCCN)NC(=O)[C@H](CCCN=C(N)N)NC(=O)[C@@H]1CCCN1C(=O)[C@H](C)N)C(=O)N[C@@H](CCCN=C(N)N)C(=O)N[C@@H](Cc1c[nH]c2ccccc12)C(=O)O [APRKNVRW]
> 100 | 64 (≈ 91.1 µg/mL) | > 100 | CC(C)[C@H](NC(=O)[C@H](Cc1ccc(O)cc1)NC(=O)[C@H](CO)NC(=O)[C@H](CCCCN)NC(=O)[C@@H](N)Cc1c[nH]c2ccccc12)C(=O)N[C@@H](CCCN=C(N)N)C(=O)N[C@@H](CCCN=C(N)N)C(=O)N[C@@H](Cc1c[nH]c2ccccc12)C(=O)N[C@@H](CCCN=C(N)N)C(=O)N[C@@H](CO)C(N)=O [WKSYVRRWRS]
30.8 (≈ 50 µg/mL) | 30.8 (≈ 50 µg/mL) |  | CSCC[C@H](NC(=O)[C@H](CCCN=C(N)N)NC(=O)[C@H](Cc1c[nH]c2ccccc12)NC(=O)[C@H](CCC(N)=O)NC(=O)[C@H](Cc1c[nH]c2ccccc12)NC(=O)[C@H](CCCN=C(N)N)NC(=O)[C@H](CCCN=C(N)N)NC(=O)[C@H](CS)NC(=O)[C@H](CCCCN)NC(=O)[C@@H](N)Cc1ccccc1)C(=O)N[C@@H](CCCCN)C(=O)O [FKCRRWQWRMK]
2.72 (≈ 5 µg/mL) | 4.08 (≈ 7.5 µg/mL) | 10.9 (≈ 20 µg/mL) | CSCC[C@H](NC(=O)[C@H](CCCN=C(N)N)NC(=O)[C@@H](N)Cc1ccc(O)cc1)C(=O)N[C@@H](Cc1c[nH]c2ccccc12)C(=O)N[C@@H](CCCN=C(N)N)C(=O)N[C@@H](Cc1c[nH]c2ccccc12)C(=O)N[C@@H](CCCN=C(N)N)C(=O)N[C@@H](Cc1c[nH]c2ccccc12)C(=O)N[C@@H](CCCN=C(N)N)C(=O)N[C@@H](Cc1c[nH]c2ccccc12)C(=O)N[C@@H](CCCN=C(N)N)C(N)=O [YRMWRWRWRWR]
32 (≈ 50.5 µg/mL) | 16 (≈ 25.3 µg/mL) | > 100 | CC(C)[C@H](NC(=O)[C@H](Cc1ccc(O)cc1)NC(=O)[C@H](CO)NC(=O)[C@H](CCCCN)NC(=O)[C@@H](N)Cc1c[nH]c2ccccc12)C(=O)N[C@@H](CCCN=C(N)N)C(=O)N[C@@H](CCCN=C(N)N)C(=O)N[C@@H](Cc1c[nH]c2ccccc12)C(=O)N[C@@H](CCCN=C(N)N)C(=O)N[C@@H](CO)C(=O)N[C@@H](CCCN=C(N)N)C(N)=O [WKSYVRRWRSR]
 | 5.76 (≈ 7.99 µg/mL) |  | CC[C@H](C)[C@H](NC(=O)[C@H](Cc1c[nH]c2ccccc12)NC(=O)[C@H](CCCCN)NC(=O)[C@H](Cc1c[nH]c2ccccc12)NC(=O)[C@H](Cc1c[nH]c2ccccc12)NC(=O)[C@H](CCCCN)NC(=O)[C@H](CCCCN)NC(=O)[C@H](Cc1c[nH]c2ccccc12)NC(=O)[C@@H](N)CCCCN)C(N)=O [KWKKWWKWI]
 | 1 (≈ 4.93 µg/mL) |  | CC[C@H](C)[C@H](NC(=O)CNC(=O)[C@H](CC(N)=O)NC(=O)[C@@H](NC(=O)[C@@H](NC(=O)CNC(=O)[C@@H](NC(=O)[C@H](CCCCN)NC(=O)[C@@H](NC(=O)CNC(=O)[C@H](CCCCN)NC(=O)CNC(=O)[C@@H](NC(=O)[C@@H](NC(=O)[C@H](CCCCN)NC(=O)[C@@H]1CCCN1C(=O)[C@H](Cc1ccccc1)NC(=O)[C@@H](NC(=O)CN)[C@@H](C)CC)[C@@H](C)CC)[C@@H](C)CC)[C@@H](C)CC)[C@@H](C)O)[C@@H](C)CC)C(C)C)C(=O)N[C@@H](CCCCN)C(=O)N[C@@H](CO)C(=O)N[C@@H](CC(C)C)C(=O)N[C@H](C(=O)N[C@@H](CCCCN)C(=O)NCC(=O)N[C@H](C(=O)NCC(=O)N[C@@H](CCSC)C(=O)N[C@@H](CCCCN)C(=O)N[C@H](C(=O)N[C@@H](Cc1ccccc1)C(=O)N[C@@H](CCCCN)C(=O)N[C@@H](C)C(=O)NCC(=O)N[C@@H](CC(C)C)C(=O)N[C@@H](CC(N)=O)C(=O)N[C@@H](CC(N)=O)C(=O)N[C@H](C(=O)NCC(=O)N[C@@H](CC(N)=O)C(=O)N[C@H](C(=O)NCC(=O)N[C@H]1CSSC[C@@H](C(=O)O)NC(=O)[C@H](CCC(=O)O)NC(=O)[C@H](CC(=O)O)NC(=O)[C@H](CCC(=O)O)NC(=O)[C@H](CC(N)=O)NC1=O)[C@@H](C)O)[C@@H](C)CC)C(C)C)C(C)C)C(C)C [GIFPKIIGKGIKTGIVNGIKSLVKGVGMKVFKAGLNNIGNTGCNEDEC]
32 (≈ 55.7 µg/mL) | 16 (≈ 27.9 µg/mL) | 100 (≈ 174 µg/mL) | CC(C)[C@H](NC(=O)[C@H](Cc1ccc(O)cc1)NC(=O)[C@H](CO)NC(=O)[C@H](CCCCN)NC(=O)[C@@H](N)Cc1c[nH]c2ccccc12)C(=O)N[C@@H](CCCN=C(N)N)C(=O)N[C@@H](CCCN=C(N)N)C(=O)N[C@@H](Cc1c[nH]c2ccccc12)C(=O)N[C@@H](CCCN=C(N)N)C(=O)N[C@@H](CO)C(=O)N[C@@H](CCCN=C(N)N)C(=O)N[C@@H](Cc1ccc(O)cc1)C(N)=O [WKSYVRRWRSRY]
 |  | 32 (≈ 36.9 µg/mL) | CSCC[C@H](NC(=O)[C@H](Cc1cnc[nH]1)NC(=O)[C@H](C)NC(=O)[C@H](CCSC)NC(=O)[C@@H](NC(=O)[C@H](CCCCN)NC(=O)[C@@H]1CCCN1C(=O)[C@H](CC(C)C)NC(=O)[C@@H](N)C(C)C)C(C)C)C(=O)N[C@@H](CCCCN)C(=O)O [VLPKVMAHMK]
 | 31.6 (≈ 32 µg/mL) |  | CC(C)C[C@H](NC(=O)[C@H](CC(N)=O)NC(=O)[C@H](CCCCN)NC(=O)[C@H](CCCN=C(N)N)NC(=O)[C@@H]1CCCN1C(=O)[C@H](C)N)C(=O)N[C@@H](CCCCN)C(=O)N[C@@H](Cc1c[nH]c2ccccc12)C(=O)O [APRKNLKW]
> 100 | > 100 | > 100 | CC[C@H](C)[C@H](NC(=O)CNC(=O)[C@@H](N)CO)C(=O)N[C@@H](CCC(N)=O)C(=O)N1CCC[C@H]1C(=O)N[C@@H](CCC(=O)O)C(=O)N[C@@H](CCC(N)=O)C(=O)N[C@@H](Cc1cnc[nH]1)C(=O)N[C@@H](CO)C(=O)N[C@@H](CO)C(N)=O [SGIQPEQHSS]
 |  | 64 (≈ 69.3 µg/mL) | CC(C)C[C@H](NC(=O)[C@@H](NC(=O)[C@H](CCCCN)NC(=O)[C@H](CCCCN)NC(=O)[C@@H](NC(=O)[C@H](CCCN=C(N)N)NC(=O)[C@H](CCCCN)NC(=O)[C@@H](NC(=O)[C@@H](N)CC(C)C)C(C)C)C(C)C)C(C)C)C(=O)O [LVKRVKKVL]
5 (≈ 8.34 µg/mL) | 30 (≈ 50 µg/mL) | 20 (≈ 33.3 µg/mL) | CC(C)C[C@H](NC(=O)[C@H](CCCN=C(N)N)NC(=O)[C@@H](N)CCCCN)C(=O)N[C@@H](CCCN=C(N)N)C(=O)N[C@@H](CCCN=C(N)N)C(=O)N[C@H](C(=O)N[C@@H](Cc1c[nH]c2ccccc12)C(=O)N[C@@H](CCCN=C(N)N)C(=O)N[C@@H](CCCN=C(N)N)C(=O)N[C@@H](Cc1c[nH]c2ccccc12)C(=O)N[C@@H](CCCN=C(N)N)C(N)=O)C(C)C [KRLRRVWRRWR]
6 (≈ 12.6 µg/mL) |  |  | CC(C)C[C@H](NC(=O)[C@H](C)NC(=O)[C@@H](N)CO)C(=O)N[C@H](C(=O)NCC(=O)N[C@H]1CSSC[C@@H](C(=O)N[C@@H](Cc2ccccc2)C(=O)NCC(=O)N[C@@H](CCCN=C(N)N)C(=O)O)NC(=O)[C@@H]2CCCN2C(=O)[C@H](CCCCN)NC(=O)[C@@H]2CCCN2C(=O)[C@@H]2CCCN2C(=O)[C@H](Cc2ccc(O)cc2)NC(=O)[C@H](CO)NC(=O)[C@H](CCCCN)NC(=O)[C@H]([C@@H](C)O)NC(=O)[C@H](Cc2c[nH]c3ccccc23)NC1=O)C(C)C [SALVGCWTKSYPPKPCFGR]
 | 12.5 (≈ 22.4 µg/mL) |  | CC[C@H](C)[C@H](NC(=O)[C@H](CCCCN)NC(=O)[C@H](CC(C)C)NC(=O)[C@H](CC(C)C)NC(=O)[C@@H]1CCCN1C(=O)CNC(=O)[C@H](CC(C)C)NC(=O)[C@H](CCCCN)NC(=O)CN)C(=O)N[C@@H](C)C(=O)N[C@@H](C)C(=O)N[C@@H](CCCCN)C(=O)N[C@H](C(=O)NCC(=O)N[C@@H](CO)C(=O)N[C@@H](CC(N)=O)C(=O)N[C@@H](CC(C)C)C(=O)N[C@@H](CC(C)C)C(N)=O)C(C)C [GKLGPLLKIAAKVGSNLL]
> 41.3 | > 41.3 |  | CC[C@H](C)[C@H](NC(=O)[C@H](CCCN=C(N)N)NC(=O)[C@H](CCCCN)NC(=O)[C@H](CC(C)C)NC(=O)[C@H](CC(C)C)NC(=O)CN)C(=O)N[C@@H](CCCCN)C(=O)N[C@H](C(=O)N[C@@H](CC(C)C)C(N)=O)[C@@H](C)O [GLLKRIKTL]
 | 233 (≈ 512 µg/mL) |  | CC(C)C[C@H](NC(=O)[C@@H](N)C(C)C)C(=O)N[C@H](C(=O)N1CCC[C@H]1C(=O)N[C@@H](CCC(N)=O)C(=O)NCC(=O)N[C@@H](Cc1ccccc1)C(=O)N[C@@H](C)C(=O)N[C@H](C(=O)N[C@H](C(=O)N[C@@H](CCCCN)C(=O)N[C@@H](CCCCN)C(=O)N[C@@H](C)C(=O)N[C@@H](CC(N)=O)C(=O)N[C@@H](Cc1ccccc1)C(=O)N[C@H](C(=O)N[C@@H](C)C(=O)N[C@@H](Cc1ccccc1)C(=O)N[C@@H](Cc1ccc(O)cc1)C(=O)N[C@H](C(=O)O)[C@@H](C)O)C(C)C)C(C)C)C(C)C)C(C)C [VLVPQGFAVVKKANFVAFYT]
2300 (≈ 2500 µg/mL) | 4600 (≈ 5000 µg/mL) |  | CC(C)C[C@H](NC(=O)[C@H](C)NC(=O)[C@H](CCCCN)NC(=O)[C@H](C)NC(=O)[C@H](CC(C)C)NC(=O)[C@H](CC(=O)O)NC(=O)[C@@H](N)CCC(=O)O)C(=O)N[C@@H](C)C(=O)N[C@@H](CCCCN)C(=O)N[C@@H](CCCCN)C(=O)O [EDLAKALAKK]
